From ChEMBL document CHEMBL2321790, “1,4,2-Benzo/pyridodithiazine 1,1-dioxides structurally related to the ATP-sensitive potassium channel openers 1,2,4-Benzo/pyridothiadiazine 1,1-dioxides exert a myorelaxant activity linked to a distinct mechanism of action” (J Med Chem, 2013)

Assays:
Rattus norvegicus = organism: Rattus norvegicus; assay: Activation of ATP-sensitive potassium channel opening in albino rat pancreatic islets assessed as inhibition of glucose-induced insulin release measured as residual insulin release at 10 uM after 90 mins by radioimmunoassay
[1] = Activation of ATP-sensitive potassium channel opening in albino rat aorta rings assessed as relaxation of KCl-induced contraction of aorta rings; type: tissue-based
Aorta [2] = assay: Myorelaxant activity in albino rat aorta rings assessed as relaxation of 80 mM KCl-induced contraction of aorta rings; type: functional, tissue-based
Aorta [3] = assay: Myorelaxant activity in albino rat aorta rings assessed as relaxation of 30 mM KCl-induced contraction of aorta rings; type: functional, tissue-based
Aorta [4] = assay: Myorelaxant activity in albino rat aorta rings assessed as relaxation of KCl-induced contraction of aorta rings in presence of 1 uM KATP channel blocker glibenclamide; type: functional, tissue-based
Aorta [5] = assay: Myorelaxant activity in albino rat aorta rings assessed as relaxation of KCl-induced contraction of aorta rings in presence of 10 uM KATP channel blocker glibenclamide; type: functional, tissue-based
Aorta [6] = assay: Myorelaxant activity in albino rat aorta rings assessed as relaxation of KCl-induced contraction of aorta rings; type: functional, tissue-based
[7] = Dissociation constant, pKa of the compound in water at 25 degC; type: physicochemical

SMILES | Activity (Rattus norvegicus) [%] | EC50 [1] [µM] | other results
CC(SC1=NS(=O)(=O)c2cccc(Cl)c2N1)c1ccccc1 (configuration not stated) | 79.2 | > 30 | 
CCC(C)NC1=NS(=O)(=O)c2cc([N+](=O)[O-])ccc2S1 (configuration not stated) | 110 | 59.9 | 
CC(SC1=NS(=O)(=O)c2cc(F)ccc2N1)c1ccccc1 (racemic) |  |  | EC50 (Aorta [2]): 27.5 µM; EC50 (Aorta [3]): 13.2 µM; EC50 (Aorta [4]): 33.3 µM; EC50 (Aorta [5]; read-out: EC50): 36.2 µM
CC(NC1=NS(=O)(=O)c2cc(S(C)(=O)=O)ccc2S1)c1ccccc1 (configuration not stated) | 83.4 | > 30 | 
C[C@@H](NC1=NS(=O)(=O)c2cc(C(F)(F)F)ccc2S1)c1ccccc1 |  | > 30 | 
CC(C)NC1=NS(=O)(=O)c2cc(S(C)(=O)=O)ccc2S1 | 76.3 | > 200 | 
CS(=O)(=O)c1ccc2c(c1)S(=O)(=O)N=C(Nc1ccccc1)S2 | 92.4 | > 30 | 
COc1ccc(CCN(C)CCCC(C#N)(c2ccc(OC)c(OC)c2)C(C)C)cc1OC (configuration not stated) [VERAPAMIL] |  |  | EC50 (Aorta [2]): 0.052 µM; EC50 (Aorta [3]): 0.031 µM; Activity (Aorta [6]): Dose-dependent effect; EC50 (Aorta [4]): 0.038 µM; EC50 (Aorta [5]): 0.35 µM
CCNC1=NS(=O)(=O)c2cc([N+](=O)[O-])ccc2S1 | 100 | > 30 | 
O=[N+]([O-])c1ccc2c(c1)S(=O)(=O)N=C(NC1CC1)S2 | 88.2 | > 200 | 
CC(C)CNC1=NS(=O)(=O)c2cc([N+](=O)[O-])ccc2S1 | 110 | 69.1 | 
CC(C)NC1=NS(=O)(=O)c2c[n+]([O-])ccc2S1 | 76.7 | > 200 | 
CC(C)NC1=NS(=O)(=O)c2ccc(Cl)cc2S1 | 78.9 | > 30 | 
O=[N+]([O-])c1ccc2c(c1)S(=O)(=O)N=C(NCC1CC1)S2 | 90.2 | 61.1 | 
CC(NC1=NS(=O)(=O)c2cc(C(F)(F)F)ccc2S1)c1ccccc1 (racemic) [listing 2 of 2 here] | 97 |  | 
CC(C)NC1=NS(=O)(=O)c2cc([N+](=O)[O-])ccc2S1 | 97.7 | 176 | 
CC(C)NC1=NS(=O)(=O)c2cc(Cl)ccc2S1 | 92.2 | > 100 | pKa [7]: 9.76
CC(C)NC1=NS(=O)(=O)c2cccc(Cl)c2S1 | 82.4 | > 30 | 
CC(C)NC1=NS(=O)(=O)c2cnccc2S1 | 90.6 | 190 | 
CC(C)NC1=NS(=O)(=O)c2cc(C#N)ccc2S1 | 86.2 | 152 | 
CC(SC1=NS(=O)(=O)c2cc(F)ccc2N1)c1ccccc1 (configuration not stated) [listing 2 of 2 here] | 95.5 |  | 
O=[N+]([O-])c1ccc2c(c1)S(=O)(=O)N=C(NCc1ccccc1)S2 | 77.7 | > 30 | 
CC(C)NC1=NS(=O)(=O)c2cc(C(=O)O)ccc2S1 | 68.5 | > 200 | 
O=[N+]([O-])c1ccc2c(c1)S(=O)(=O)N=C(Nc1ccccc1)S2 | 89.5 | > 200 | 
CC(NC1=NS(=O)(=O)c2cc(C(F)(F)F)ccc2S1)c1ccccc1 (stereo in doubt; 6t) | 97 |  | 

Continued, in another order:

Activity (Rattus norvegicus) [%] | EC50 [1] [µM] | SMILES | other results
71.1 | 5.4 | CC(SC1=NS(=O)(=O)c2cc(Cl)ccc2N1)c1ccccc1 (configuration not stated) | 
 | 11.6 | CC(NC1=NS(=O)(=O)c2cc(C(F)(F)F)ccc2S1)c1ccccc1 (racemic) [listing 1 of 2 here] | EC50 (Aorta [2]): 14.9 µM; EC50 (Aorta [3]): 16.2 µM; EC50 (Aorta [4]): 17.3 µM; EC50 (Aorta [5]; read-out: EC50): 15.5 µM
 | 11.3 | C[C@H](NC1=NS(=O)(=O)c2cc(C(F)(F)F)ccc2S1)c1ccccc1 | 
73.9 | 26.2 | CC1=Nc2ccc(Cl)cc2S(=O)(=O)N1 [DIAZOXIDE] | EC50 (Aorta [2]): > 300 µM; EC50 (Aorta [3]): 23.8 µM; EC50 (Aorta [4]): 154 µM; EC50 (Aorta [5]; read-out: EC50): 280 µM
108 | 53.7 | CC(C)NC1=NS(=O)(=O)c2cc(C(F)(F)F)ccc2S1 | 
81.4 | 5.4 | CC(SC1=NS(=O)(=O)c2cc(I)ccc2N1)c1ccccc1 (configuration not stated) | 
4.8 | 31.8 | CC(C)NC1=NS(=O)(=O)c2cc(Cl)ccc2N1 | 
110 | 38.8 | CCC(C)NC1=NS(=O)(=O)c2cc(C(F)(F)F)ccc2S1 (configuration not stated) | 
 | 15 | CC(SC1=NS(=O)(=O)c2cc(F)ccc2N1)c1ccccc1 (configuration not stated) [listing 1 of 2 here] | 
76.3 | 5.7 | CC(SC1=NS(=O)(=O)c2ccc(Cl)cc2N1)c1ccccc1 (configuration not stated) | 
91.5 | 15.9 | CC(NC1=NS(=O)(=O)c2cc([N+](=O)[O-])ccc2S1)c1ccccc1 (configuration not stated) | 
100 | 42.6 | O=[N+]([O-])c1ccc2c(c1)S(=O)(=O)N=C(NC1CCCC1)S2 | 
89.5 | 48.7 | O=S1(=O)N=C(NC2CCCC2)Sc2ccc(C(F)(F)F)cc21 | 
67.8 | 13.7 | O=S1(=O)N=C(Nc2ccccc2)Sc2ccc(C(F)(F)F)cc21 | 
91.7 | 11.9 | CC(SC1=NS(=O)(=O)c2cc(Br)ccc2N1)c1ccccc1 (configuration not stated) | 
